Values quoted from earlier work as cited in article PMC10534093 (Food Chemistry: X, 2023).

Tested on: ACE
Settings: Table 2; ref BIOPEP-UWM and AHTPDB
For DRPSIGNLAGANSLLNALP, the “Known activity in the database” value is listed as “ACE inhibitor”.
For DRDSYNLHPGDAQRIPAGTTY, the “Known activity in the database” value is listed as “ACE inhibitor”.
In the case of NNPFKFLVPPQESQKR, the “Known activity in the database” value is given as “ACE inhibitor”.
For PIYSNKLGKFF, the “Known activity in the database” value is listed as “ACE inhibitor”.
For PFSFLVPPQESQR, the “Known activity in the database” value is listed as “ACE inhibitor”.
For RPSIGNLAGANSLLNALP, the “Known activity in the database” value is listed as “ACE inhibitor”.
In the case of PSSPFTDLWDPRRVGD, the “Known activity in the database” value is given as “ACE inhibitor”.
In the case of QIGLF [reference compound], the “Known activity in the database” value is listed as “ACE inhibitor”.
For EGEQPRPFPFP, the “Known activity in the database” value is listed as “ACE inhibitor”.
For TPMIGTLAGANSLLNALP, the “Known activity in the database” value is listed as “ACE inhibitor”.
In the case of RPSIGNLAGANSLLNALPE, the “Known activity in the database” value is listed as “ACE inhibitor”.
In the case of PLDLTSFVLH, the “Known activity in the database” value is given as “ACE inhibitor”.
For YEAGVVPPGARFEPPR, the “Known activity in the database” value is given as “ACE inhibitor”.
In the case of WGPLVNPESQQGSPR, the “Known activity in the database” value is listed as “ACE inhibitor”.
For IGTLAGANSLLNALP, the “Known activity in the database” value is given as “ACE inhibitor”.
In the case of PSEVEAVFKPLGPEVGELRV, the “Known activity in the database” value is listed as “ACE inhibitor”.
In the case of VISQIPSQVQELAFPG, the “Known activity in the database” value is listed as “ACE inhibitor”.

Tested on: ACE
Settings: ref Kheeree et al., 2020
For GPAGPAGL, the “IC50 against ACE” value is given as 8 µg/mL.

Same assay, conditions: ref Sitanggang, Putri, Palupi, Hatzakis, & Budijanto, 2021
For IPPGVPYWT, the “IC50 against ACE” value is listed as 400 µg/mL.

Same assay, conditions: ref Tu et al., 2018
For NMAINPSKENLCSTFCK, the “IC50 against ACE” value is given as 2830 µg/mL.

Same assay, conditions: reference peptide; ref Yu, Zhao, Liu, Lu, & Chen, 2011
In the case of QIGLF [reference compound], the “IC50 against ACE” value is given as 420 µg/mL.

Tested on: α-glucosidase
Settings: Table 1; ref BIOPEP-UWM and AHTPDB
For IVTVEGGLSVISPKW, the “Known activity in the database” value is listed as “Alpha-glucosidase inhibitor”.
For TFSEYPPLGR, the “Known activity in the database” value is listed as “Alpha-glucosidase inhibitor”.
For IQAEGGLT [reference compound], the “Known activity in the database” value is listed as “Alpha-glucosidase inhibitor”.

Biological target: α-glucosidase
Settings: ref Zhang, Wang, & Li, 2016
In the case of NSPR, the “IC50 against α-glucosidase” value is given as 93 µg/mL.
